Reference: patent US4136163A, “P-Menthane carboxamides having a physiological cooling effect” (Wilkinson Sword Limited, priority 1971, dated 1979)

Assays:
cold receptors [1] = experiment: Threshold test: minimum quantity of compound on filter paper square on tongue giving a noticeable cooling effect, selected panel of 6 people; type: in vivo, human; conditions: for Threshold (average minimum quantity to produce a noticeable cooling effect): panel of 6 people, cooling reported 50% of the time
Description: For example, a controlling factor in the onset of cooling effect, its intensity and longevity will be the rate of penetration of the compounds through the epidermis and this will vary in different locations on the human body.
It will also benoted that the described test procedure is done on a statistical basis. This is necessary since sensitivity to these compounds will vary not only from compound to compound and from one part of the body to another, but also from one individual to another. Tests of this nature are commonly used in the testing of the organoleptic properties, e.g. taste, smell etc. of organic and inorganic compounds, see Kirk-Othmer: Encyclopedia of Chemical Technology, 2nd. Ed.
The following test procedure is aimed at determining the minimum quantity of the test compound required to produce a noticeable cooling effect on a person of average sensitivity, this minimum quantity being termed the threshold for that particular compound. The tests are carried out on a selected panel of 6 people of median sensitivity to 1-menthol.
To select a test panel of average sensitivity the following procedure is used. Known quantities of 1-menthol in solution in petroleum ether (bp.40-60) are placed on 5 mm. squares of filter paper, whereafter the solvent is allowed to evaporate. A panel of observers is enrolled and asked to place one impregnated square at a time on the tongue and to report on the presence or absence of a cooling effect. […] Conveniently, one starts with squares containing 2.0 μg. 1-menthol, the amount on each successive square being half that of the preceding square, i.e. the second test square will contain 1.0 μg, the third 0.5 μg and so on. Each quantity is tested on the tongue at least 10 times. In this way, the thresholds to cold receptor stimulus by 1-menthol are determined for each individual of the panel, the threshold for each individual being that amount of 1-menthol for which, in a series of not less than 10 test applications, a cooling effect is reported 50% of the time.
To test the activity of compounds according to this invention, the above procedure is repeated using only the 6 selected panel members of average sensitivity to 1-menthol. The individual thresholds for each test compound on each of the 6 selected panel members are determined and averaged. Those compounds whose average threshold on the select test panel is 100 μg or less are regarded as having cooling activity in accordance with this invention.

cold receptors [2] = experiment: Cooling effect of consumer product applied to skin (face, scalp, lips, forehead); type: in vivo, human
Description: Into two separate samples of the base lotion were added 2.0% by weight based on the total composition of N-ethyl-p-menthane-3-carboxamide and N,N-dimethyl-p-menthane-3-carboxamide, each into a different one of the two samples.
To the recipe was added 3.0%, based on the total composition of N-p-menth-3-oylglycine methyl ester. […]
Sodium lauryl ether sulphate, 10 g., was dispersed in 90 g. water in a high speed mill. To the dispersion was added 3.3% by weight of N-(2-hydroxy-n-propyl)-p-menthane-3-carboxamide. […]
The sodium stearate was dissolved by stirring in a warm mixture of the ethanol propylene glycol and water. To the solution was added the perfume and 3.0% of N-(2-hydroxy-n-propyl)-p-menthane-3-carboxamide and the mixture then allowed to solidify into a waxy cake. […]
This Example illustrates now the physiological cooling effect of the compounds of this invention varies according to the locality of application.
In the course of grinding there was added 3.0% of N-n-propyl-p-menthane-3-carboxamide. […]
To this liquid was added 1.0% of N-ethyl-p-menthane-3-carboxamide. A paper tissue was then soaked in the liquid.

Row | Compound | Threshold (average minimum quantity to produce a noticeable cooling effect) (cold receptors [1]) [µg] | further results
1 | CCC(C)NC(=O)C1CC(C)CCC1C(C)C (centres unmarked) [H, --C4 H9 (sec)] | 0.7 | –
2 | CCC(CO)NC(=O)C1CC(C)CCC1C(C)C (centres unmarked) [H, --CH(C2 H5)CH2 OH] | 1.0 | –
3 | CC1CCC(C(C)C)C(C(=O)Nc2ccccc2O)C1 (centres unmarked) [H, --C6 H4 OH(o)] | 0.5 | –
4 | CC1CCC(C(C)C)C(C(=O)N2CCNCC2)C1 (centres unmarked) [--CH2 CH2 NHCH2 CH2 --] | 15 | –
5 | CC1CCC(C(C)C)C(C(=O)NCC(=O)O)C1 (centres unmarked) [H, --CH2 COOH, N-(p-menth-3-oyl) glycine] | 16 | cooling effect (cold receptors [2]; Example 6, lipstick, 0.6%, lips): a persistent cooling effect is clearly noiticeable
6 | CC1CCC(C(C)C)C(C(=O)Nc2ccc([N+](=O)[O-])cc2)C1 (centres unmarked) [H, --C6 H4 NO2 (p)] | 0.3 | –
7 | CCN(CC(C)C)C(=O)C1CC(C)CCC1C(C)C (centres unmarked) [--C2 H5, --C4 H9 (iso)] | 5 | –
8 | CC1CCC(C(C)C)C(C(=O)NCCN)C1 (centres unmarked) [H, --CH2 CH2 NH2] | 20 | –
9 | CCOC(=O)CCNC(=O)C1CC(C)CCC1C(C)C (centres unmarked) [H, --CH2 CH2 COOC2 H5] | 1.5 | –
10 | CC(=O)OCCNC(=O)C1CC(C)CCC1C(C)C (centres unmarked) [H, --CH2 CH2 OCOCH3] | 1.5 | –
11 | CC1CCC(C(C)C)C(C(=O)NC2CCCCC2)C1 (centres unmarked) [H, --C6 H11 (cyclo)] | 1 | –
12 | CCOC(=O)CNC(=O)C1CC(C)CCC1C(C)C (centres unmarked) [H, --CH2 COOC2 H5] | 0.2 | –
13 | CC1CCC(C(C)C)C(C(=O)N(C)CCO)C1 (centres unmarked) [--CH3, --CH2 CH2 OH] | 5 | –
14 | CC1CCC(C(C)C)C(C(=O)NCO)C1 (centres unmarked) [H, --CH2 OH] | 12 | –
15 | CC1CCC(C(C)C)C(C(=O)N2C(C)CCC2C)C1 (centres unmarked) [--CH(CH3)CH2 CH2 CH(CH3)--] | 0.5 | –
16 | CC1CCC(C(C)C)C(C(=O)NCc2ccccc2)C1 (centres unmarked) [H, --CH2 Ph] | 10 | –
17 | CCCCCNC(=O)C1CC(C)CCC1C(C)C (centres unmarked) [H, --C5 H11 (n)] | 3 | –
18 | CC(C)CNC(=O)C1CC(C)CCC1C(C)C (centres unmarked) [H, --C4 H9 (iso)] | 0.9 | –
19 | CC1CCC(C(C)C)C(C(=O)N2CCCC2)C1 (centres unmarked) [--(CH2 H4 --] | 5 | –
20 | CC1CCC(C(C)C)C(C(=O)NC(C)C)C1 (centres unmarked) [H, --C3 H7 (iso)] | 0.5 | –
21 | CC1CCC(C(C)C)C(C(=O)Nc2ccc(F)cc2)C1 (centres unmarked) [H, --C6 H4 F(p)] | 0.5 | –
22 | CC1CCC(C(C)C)C(C(=O)Nc2cccnc2)C1 (centres unmarked) [H, --3-Pyridyl] | 0.5 | –
23 | CCCCCCCCCCNC(=O)C1CC(C)CCC1C(C)C (centres unmarked) [H, --C10 H21 (n)] | 10 | –
24 | CCN(CC)C(=O)C1CC(C)CCC1C(C)C (centres unmarked) [--C2 H5, --C2 H5] | 3 | –
25 | CCOC(=O)CC(C)NC(=O)C1CC(C)CCC1C(C)C (centres unmarked) [H, --CH(CH3)CH2 COOC2 H5] | 0.8 | –

Row | Compound | Threshold (average minimum quantity to produce a noticeable cooling effect) (cold receptors [1]) [µg] | further results
26 | CC1CCC(C(C)C)C(C(=O)NCC#CCO)C1 (centres unmarked) [H, --CH2 C≡CCH2 OH] | 17 | –
27 | CC1CCC(C(C)C)C(O)C1 (centres unmarked) [1-menthol, reference compound] | – | average threshold to 1-menthol of selected panel (cold receptors [1]; panel selection criterion, six members): approximately 0.25 μg
28 | CC1CCC(C(C)C)C(C(=O)NO)C1 (centres unmarked) [H, --OH] | 11 | –
29 | CC1CCC(C(C)C)C(C(=O)NC(C)(C)C)C1 (centres unmarked) [H, --C4 H9 (tert.)] | 0.4 | –
30 | CC1CCC(C(C)C)C(C(=O)N(CCO)C(C)C)C1 (centres unmarked) [--C3 H7 (iso), --CH2 CH2 OH] | 3 | –
31 | Cc1ccc(NC(=O)C2CC(C)CCC2C(C)C)cc1O (centres unmarked) [H, --C6 H3 Me(p)OH(m)] | 0.1 | –
32 | CNC(=O)C1CC(C)CCC1C(C)C (centres unmarked) [H, --CH3, N-methyl-p-menthane-3-carboxamide] | 1.1 | cooling effect (cold receptors [2]; Example 4, deodorant composition, 1.3%, skin): definte cooling sensation on the skin
33 | CC1CCC(C(C)C)C(C(=O)N2CCCCC2)C1 (centres unmarked) [--(CH2)5 --] | 6 | –
34 | CC1CCC(C(C)C)N(C(=O)C2CC(C)CCC2C(C)C)CC1 (centres unmarked) [--CH(iso-C3 H7)CH2 CH2 CH(CH3)CH2 CH2 --] | 50 | –
35 | CC1CCC(C(C)C)C(C(=O)NCCCCCCO)C1 (centres unmarked) [H, --(CH2)6 OH] | 1.0 | –
36 | CCCCNC(=O)C1CC(C)CCC1C(C)C (centres unmarked) [H, --C4 H9 (n)] | 1.4 | –
37 | Cc1ccc(NC(=O)C2CC(C)CCC2C(C)C)cc1 (centres unmarked) [H, --C6 H4 Me(p)] | 0.3 | –
38 | CCCOC(=O)CNC(=O)C1CC(C)CCC1C(C)C (centres unmarked) [H, --CH2 COOC3 H7 (n), N-(p-menth-3-oyl)glycine n-propyl ester] | 0.3 | cooling effect (cold receptors [2]; Example 22, antipruritic ointment, 0.1%, skin): soothing effect on the skin accompanied by a noticeable cooling effect
39 | CCOC(=O)CN(C)C(=O)C1CC(C)CCC1C(C)C (centres unmarked) [--CH3, --CH2 CO2 C2 H5] | 0.8 | –
40 | Cc1ccc(NC(=O)C2CC(C)CCC2C(C)C)cc1C (centres unmarked) [H, --C6 H3 Me2 (m,p)] | 0.1 | –
41 | CC1CCC(C(C)C)C(C(=O)NC2CCCC2)C1 (centres unmarked) [H, --C5 H9 (cyclo)] | 0.5 | –
42 | COC(=O)CNC(=O)C1CC(C)CCC1C(C)C (centres unmarked) [H, --CH2 COOCH3, N-(p-menth-3-oyl)glycine methyl ester] | 0.6 | cooling effect (cold receptors [2]; Example 3, toilet water, 3.0%, skin): a cooling effect was clearly noticeable on the skin well after the termination of any cooling effect attributable to the evaporation of the alcoholic carrier; cooling effect (cold receptors [2]; Example 8, hair tonic, 2.0%, scalp): a cooling effect is noticed; cooling effect (cold receptors [2]; Example 21, antiseptic ointment, 0.5%, skin): marked cooling effect
43 | CC1CCC(C(C)C)C(C(=O)NC2CC2)C1 (centres unmarked) [H, --C3 H5 (cyclo)] | 0.5 | –
44 | COc1ccc(NC(=O)C2CC(C)CCC2C(C)C)cc1 (centres unmarked) [H, --C6 H4 OMe(p)] | 0.1 | –
45 | CC1CCC(C(C)C)C(C(=O)NC2CCCCCC2)C1 (centres unmarked) [H, --C7 H13 (cyclo)] | 3 | –
46 | CC1CCC(C(C)C)C(C(=O)NCCCO)C1 (centres unmarked) [H, --(CH2)3 OH, N-3-hydroxypropyl-p-menthane carboxamide] | 3 | cooling effect (cold receptors [2]; Example 24 repeated, cleansing tissue, 2.0%, skin, in place of the N-ethyl compound): equally effective results
47 | CC1CCC(C(C)C)C(C(=O)Nc2ccc(O)cc2)C1 (centres unmarked) [H, --C6 H4 OH(p)] | 1.4 | –
48 | CCOC(=O)C(C)NC(=O)C1CC(C)CCC1C(C)C (centres unmarked) [H, --CH(CH3)COOC2 H5] | 0.4 | –
49 | CC1CCC(C(C)C)C(C(=O)NCC2CCCCCC2)C1 (centres unmarked) [H, --CH2 (C7 H13 (cyclo)] | 20 | –
